The values below come from patent US9090776B2, “Squarylium dyes” (Exciton, Inc., priority 2012, dated 2015).

This series is described as follows: Solubility of squarylium dye in dichloromethane. The format is physicochemical. From the text: Subsequent conversion to the squarylium dye can yield desirable photophysical, solubility, thermal stability, and/or light stability properties. For example, as shown in the FIGURE, the ortho-, ortho- isomer of compound IV has a solubility of about 0.2 gm/L in dichloromethane, CH2Cl2. In comparison, the corresponding meta-, meta- and para-, para- isomers of compound have solubilities of about 0.6 gm/L and about 0.5 gm/L in CH2Cl2, respectively.

For the molecule `CC1N(Cc2cccc(NC(=O)c3ccccc3)c2)c2cc(NC(=O)c3ccccc3)c(C3=C([O-])/C(=c4/cc5c(cc4NC(=O)c4ccccc4)=[N+](Cc4cccc(NC(=O)c6ccccc6)c4)C(C)C5(C)C)C3=O)cc2C1(C)C` (stereo not drawn) [meta-, meta- isomer of compound IV], the “solubility in dichloromethane, CH2Cl2” value is recorded as “about 0.6 gm/L”.
